Organism: Rattus norvegicus
Experiment: Open TG-GATES - Regimen: Daily Repeat
Assay type: toxicity, organism-based, Sprague-Dawley
Design: regimen Daily Repeat, gender Male, age 6 weeks
Conditions: in vivo, po, 100 mg/kg, route gavage, dose level High; for APTT / Bas / Eos / Fbg / Hb / Ht / Lym / MCHC / MCV / Mono / Neu / PT / Plat / RBC / Ret / WBC: tissue Blood; for KIDNEY_L / KIDNEY_R / KIDNEY_TOTAL: tissue Kidney; for LIVER: tissue Liver; for ALP / ALT / AST / BUN / CRE / Ca / Cl / DBIL / GLC / IP / K / LDH / Na / PL / RALB / TBIL / TC / TG / TP / gamma-GTP: tissue Plasma

## CS(=O)(=O)Nc1ccc([N+](=O)[O-])cc1Oc1ccccc1 [NIMESULIDE]
72 h, time 3 day
  TERMINAL_BW: 201.1 g
  APTT: 17.3 s
  Bas: 0%
  Eos: 1.4%
  Fbg: 222 mg/dL
  Hb: 14.1 g/dL
  Ht: 41.6%
  Lym: 66.8%
  MCHC: 34%
  MCV: 64.1 fL
  Mono: 8.6%
  Neu: 22.8%
  PT: 11.6 s
  Plat: 113.5 x10_4/uL
  RBC: 649.4 x10_4/ul
  Ret: 6.7%
  WBC: 100.9 x10_2/uL
  KIDNEY_L: 0.9 g
  KIDNEY_R: 0.9 g
  KIDNEY_TOTAL: 1.9 g
  LIVER: 10.5 g
  ALP: 841.4 IU/L
  ALT: 37.4 IU/L
  AST: 63.8 IU/L
  BUN: 21.8 mg/dL
  CRE: 0.5 mg/dL
  Ca: 10.9 mg/dL
  Cl: 105 meq/L
  DBIL: 0.06 mg/dL
  GLC: 178.2 mg/dL
  IP: 6.7 mg/dL
  K: 4.4 meq/L
  LDH: 97.2 IU/L
  Na: 141.4 meq/L
  PL: 168.2 mg/dL
  RALB: 4.1 g/dL
  TBIL: 0.3 mg/dL
  TC: 91.2 mg/dL
  TG: 60.6 mg/dL
  TP: 5.6 g/dL
  gamma-GTP: 1.8 IU/L
[…], time 7 day
  TERMINAL_BW: 235.6 g
  APTT: 19.1 s
  Bas: 0%
  Eos: 1.2%
  Fbg: 275.5 mg/dL
  Hb: 13.3 g/dL
  Ht: 39.3%
  Lym: 62.5%
  MCHC: 33.7%
  MCV: 63 fL
  Mono: 6.2%
  Neu: 30.2%
  PT: 11.2 s
  Plat: 135.9 x10_4/uL
  RBC: 624.5 x10_4/ul
  Ret: 11.2%
  WBC: 138.2 x10_2/uL
  KIDNEY_L: 1.1 g
  KIDNEY_R: 1.1 g
  KIDNEY_TOTAL: 2.2 g
  LIVER: 12.7 g
  ALP: 860.8 IU/L
  ALT: 32.2 IU/L
  AST: 63.2 IU/L
  BUN: 20 mg/dL
  CRE: 0.6 mg/dL
  Ca: 10.9 mg/dL
  Cl: 105.5 meq/L
  DBIL: 0.0275 mg/dL
  GLC: 199.5 mg/dL
  IP: 6.6 mg/dL
  K: 4.4 meq/L
  LDH: 75.8 IU/L
  Na: 141.2 meq/L
  PL: 166.8 mg/dL
  RALB: 4 g/dL
  TBIL: 0.4 mg/dL
  TC: 92 mg/dL
  TG: 68.5 mg/dL
  TP: 6 g/dL
  gamma-GTP: 1.5 IU/L
[…], time 14 day
  TERMINAL_BW: 287.5 g
  APTT: 17.7 s
  Bas: 0%
  Eos: 1.4%
  Fbg: 250.2 mg/dL
  Hb: 13.6 g/dL
  Ht: 39.4%
  Lym: 55.8%
  MCHC: 34.4%
  MCV: 65.7 fL
  Mono: 9.8%
  Neu: 32.8%
  PT: 11.6 s
  Plat: 141.2 x10_4/uL
  RBC: 605 x10_4/ul
  Ret: 14%
  WBC: 143.9 x10_2/uL
  KIDNEY_L: 1.2 g
  KIDNEY_R: 1.3 g
  KIDNEY_TOTAL: 2.5 g
  LIVER: 16.1 g
  ALP: 842 IU/L
  ALT: 31.4 IU/L
  AST: 60.8 IU/L
  BUN: 24.6 mg/dL
  CRE: 0.6 mg/dL
  Ca: 10.7 mg/dL
  Cl: 105.4 meq/L
  DBIL: 0.008 mg/dL
  GLC: 184.8 mg/dL
  IP: 7 mg/dL
  K: 4.5 meq/L
  LDH: 79.8 IU/L
  Na: 141.6 meq/L
  PL: 171 mg/dL
  RALB: 4 g/dL
  TBIL: 0.4 mg/dL
  TC: 90.4 mg/dL
  TG: 98.8 mg/dL
  TP: 5.9 g/dL
  gamma-GTP: 2.2 IU/L
[…], time 28 day
  TERMINAL_BW: 332.9 g
  APTT: 18.9 s
  Bas: 0%
  Eos: 1.4%
  Fbg: 235.2 mg/dL
  Hb: 15.4 g/dL
  Ht: 45.6%
  Lym: 71.8%
  MCHC: 33.7%
  MCV: 59.4 fL
  Mono: 8%
  Neu: 19.2%
  PT: 11.9 s
  Plat: 118.9 x10_4/uL
  RBC: 769.2 x10_4/ul
  Ret: 4%
  WBC: 126.2 x10_2/uL
  KIDNEY_L: 1.3 g
  KIDNEY_R: 1.3 g
  KIDNEY_TOTAL: 2.6 g
  LIVER: 17 g
  ALP: 656.6 IU/L
  ALT: 27.6 IU/L
  AST: 57.8 IU/L
  BUN: 24 mg/dL
  CRE: 0.6 mg/dL
  Ca: 10.9 mg/dL
  Cl: 107.4 meq/L
  DBIL: 0.018 mg/dL
  GLC: 180.6 mg/dL
  IP: 6.8 mg/dL
  K: 4.5 meq/L
  LDH: 71.2 IU/L
  Na: 144.4 meq/L
  PL: 182.2 mg/dL
  RALB: 4.2 g/dL
  TBIL: 0.4 mg/dL
  TC: 100.4 mg/dL
  TG: 102.6 mg/dL
  TP: 6.2 g/dL
  gamma-GTP: 1.6 IU/L

Reference: ChEMBL document CHEMBL3885861, “Open TG-GATES”
